This is an account of results in patent US4751302A, “Indazole derivatives” (priority 1982, dated 1988).

Data set [1] in a line: in vivo. Particulars: mouse, ip, intraperitoneal, hydrochloride, male ddy mice.
Data set [2] relates to Carrageenin edema in rat's paw. Nature of the data set: Carrageenin Edema Test in Rat's Paw (anti-inflammatory activity, Table 1). In kind it is in vivo. As to conditions: 100 mg/kg oral, hydrochloride, rat. As for the experimental part:
An anti-inflammatory activity was measured by orally administering 100 mg/kg of a hydrochloride of the indazole derivative of this invention as set forth in Table 1 to an animal in accordance with the standard method of Carrageenin Edema Test in Rat's Paw described in C. A. Winter et al., Proc. Soc. Exp. Biol. Med., 111, 544 (1962).

For `CC1CCCC(C)N1CCCNc1n[nH]c2ccc(Cl)cc12` (stereo not shown) [(60), 3-[3-(2,6-Dimethylpiperidino)propylamino]-5-chloroindazole], the LD50 in data set [1] is 310 mg/kg. In data set [2], this compound gave an inhibition in vivo at 100 mg/kg of 36%.

On to `OC1CCN(CCCNc2n[nH]c3ccc(Cl)cc23)CC1` [(61), 3-[3-(4-Hydroxypiperidino)propylamino]-5-chloroindazole], for which the LD50 in data set [1] came to 210 mg/kg. The inhibition in vivo at 100 mg/kg in data set [2] is 46%.

In the case of `Clc1ccc2[nH]nc(NCCCN3CCC(Cl)CC3)c2c1` [(62), 3-[3-(4-Chloropiperidino)propylamino]-5-chloroindazole], the LD50 in data set [1] is 312 mg/kg. Besides, testing at 100 mg/kg in data set [2] gave an inhibition in vivo of 65%.

For `Clc1ccc2[nH]nc(NCCCN3CCCCCC3)c2c1` [(63), 3-(3-Homopiperidinopropylamino)-5-chloroindazole], the LD50 in data set [1] was 331 mg/kg. The inhibition in vivo at 100 mg/kg in data set [2] turned out to be 57%.

Consider `CN1CCN(CCCNc2n[nH]c3ccc(Cl)cc23)CC1` [(64), 3-[3-(4-Methylpiperadino)propylamino]-5-chloroindazole], for which the LD50 in data set [1] came to 229 mg/kg. The same compound yielded an inhibition in vivo at 100 mg/kg in data set [2] of 29%.

On to `Clc1ccc2[nH]nc(NCCCN3CCCC3)c2c1` [(65), 3-(3-Pyrrolidinopropylamino)-5-chloroindazole], for which the LD50 in data set [1] stood at 136 mg/kg. For the same compound, the inhibition in vivo at 100 mg/kg in data set [2] was 36%.

In data set [1], `Clc1ccc2[nH]nc(NCCCN3CCOCC3)c2c1` [(66), 3-(3-Morpholinopropylamino)-5-chloroindazole] returned an LD50 of 246 mg/kg. In addition, the inhibition in vivo at 100 mg/kg in data set [2] worked out at 46%.

With `CCN(CC)CCCNc1n[nH]c2cccc(O)c12` [(67), 3-(3-Diethylaminopropylamino)-4-hydroxyindazole], in data set [1], the LD50 is 255 mg/kg. The same compound showed an inhibition in vivo at 100 mg/kg in data set [2] of 55%.

For `CCN(CC)CCCNc1n[nH]c2ccc(O)cc12` [(68), 3-(3-Diethylaminopropylamino)-5-hydroxyindazole], the LD50 in data set [1] turned out to be 352 mg/kg. The compound further registered an inhibition in vivo at 100 mg/kg in data set [2] of 52%.

For the compound `CCN(CC)CCCNc1n[nH]c2cc(O)ccc12` [(69), 3-(3-Diethylaminopropylamino)-6-hydroxyindazole], the LD50 in data set [1] amounted to 151 mg/kg. Further, testing at 100 mg/kg in data set [2] gave an inhibition in vivo of 51%.

For the compound `CCN(CC)CCCNc1n[nH]c2c(O)cccc12` [(70), 3-(3-Diethylaminopropylamino)-7-hydroxyindazole], the LD50 in data set [1] came out at 156 mg/kg. The compound also showed an inhibition in vivo at 100 mg/kg in data set [2] of 56%.

Regarding `CCN(CC)CCCNc1n[nH]c2ccc(I)cc12` [(71), 3-(3-Diethylaminopropylamino)-5-iodoindazole], the LD50 in data set [1] worked out at 256 mg/kg. This compound also returned an inhibition in vivo at 100 mg/kg in data set [2] of 56%.

In data set [1], `CCN(CC)CCCNc1n[nH]c2c(I)cccc12` [(72), 3-(3-Diethylaminopropylamino)-7-iodoindazole] came in with an LD50 of 253 mg/kg. Also, 100 mg/kg produced 53% inhibition in vivo in data set [2].

In data set [1], `CCN(CC)CCCNc1n[nH]c2c(N)cc(N)cc12` [(73), 3-(3-Diethylaminopropylamino)-5,7-diaminoindazole] showed an LD50 of 355 mg/kg. The inhibition in vivo at 100 mg/kg in data set [2] worked out at 55%.

`CCCCN(CCCC)CCCNc1n[nH]c2ccc(O)cc12` [(74), 3-(3-Di-n-butylaminopropylamino)-5-hydroxyindazole]: in data set [1], the LD50 was found to be 253 mg/kg. The compound also showed an inhibition in vivo at 100 mg/kg in data set [2] of 53%.

As to `CC(CCNc1n[nH]c2ccc(O)cc12)N(C)C` (stereo not shown) [(75), 3-(3-Dimethylaminobutylamino)-5-hydroxyindazole], in data set [1], the LD50 was determined as 234 mg/kg. In addition, 100 mg/kg produced 34% inhibition in vivo in data set [2].

As for `CCN(CC)C(CCNc1n[nH]c2ccc(O)cc12)CC(C)C` (stereo not shown) [(76), 3-(3-Diethylamino-5-methylhexylamino)-5-hydroxyindazole], the LD50 in data set [1] worked out at 146 mg/kg. Besides, at 100 mg/kg the inhibition in vivo in data set [2] was 46%.

As to `Oc1ccc2[nH]nc(NCCCN3CCCCC3)c2c1` [(77), 3-(3-Piperidinopropylamino)-5-hydroxyindazole], in data set [1], the LD50 stood at 251 mg/kg. In data set [2], this compound gave an inhibition in vivo at 100 mg/kg of 51%.

Take `Oc1ccc2[nH]nc(NCCCCCCN3CCCCC3)c2c1` [(78), 3-(6-Piperidinohexylamino)-5-hydroxyindazole]: the LD50 in data set [1] turned out to be 225 mg/kg. Besides, 100 mg/kg produced 25% inhibition in vivo in data set [2].

Consider `CC(CCNc1n[nH]c2ccc(O)cc12)N1CCCCC1` (stereo not shown) [(79), 3-(3-Piperidinobutylamino)-5-hydroxyindazole], for which the LD50 in data set [1] stood at 146 mg/kg. The compound also showed an inhibition in vivo at 100 mg/kg in data set [2] of 46%.

In turn, `CC(C)CC(CCNc1n[nH]c2ccc(O)cc12)N1CCCCC1` (stereo not shown) [(80), 3-(3-Piperidino-5-methylhexylamino)-5-hydroxyindazole] displayed an LD50 in data set [1] of 332 mg/kg. This compound gave an inhibition in vivo at 100 mg/kg in data set [2] of 32%.

With `CC1CCCCN1CCCNc1n[nH]c2ccc(O)cc12` (stereo not shown) [(81), 3-[3-(2-Methylpiperidino)propylamino]-5-hydroxyindazole], the LD50 in data set [1] is 147 mg/kg. For the same compound, in data set [2], the inhibition in vivo at 100 mg/kg is 47%.

Regarding `CC1CCCC(C)N1CCCNc1n[nH]c2ccc(O)cc12` (stereo not shown) [(82), 3-[3-(2,6-Dimethylpiperidino)propylamino]-5-hydroxyindazole], the LD50 in data set [1] came out at 230 mg/kg. The inhibition in vivo at 100 mg/kg in data set [2] was 30%.

In the case of `Oc1ccc2[nH]nc(NCCCN3CCC(O)CC3)c2c1` [(83), 3-[3-(4-Hydroxypiperidino)propylamino]-5-hydroxyindazole], in data set [1], the LD50 worked out at 134 mg/kg. Moreover, the inhibition in vivo at 100 mg/kg in data set [2] was 34%.

Compound `Oc1ccc2[nH]nc(NCCCN3CCC(Cl)CC3)c2c1` [(84), 3-[3-(4-Chloropiperidino)propylamino]-5-hydroxyindazole] registered an LD50 in data set [1] of 163 mg/kg. Further, in data set [2], the inhibition in vivo at 100 mg/kg was 63%.

On to `Oc1ccc2[nH]nc(NCCCN3CCCCCC3)c2c1` [(85), 3-(3-Homopiperidinopropylamino)-5-hydroxyindazole], for which, in data set [1], the 50% lethal dose (LD50) stood at 135 mg/kg. The compound further yielded an inhibition in vivo at 100 mg/kg in data set [2] of 35%.

The compound `CN1CCN(CCCNc2n[nH]c3ccc(O)cc23)CC1` [(86), 3-[3-(4-Methylpiperadino)propylamino]-5-hydroxyindazole] showed an LD50 in data set [1] of 123 mg/kg. This compound returned an inhibition in vivo at 100 mg/kg in data set [2] of 23%.

On to `Oc1ccc2[nH]nc(NCCCN3CCCC3)c2c1` [(87), 3-(3-Pyrrolidinopropylamino)-5-hydroxyindazole], for which the LD50 in data set [1] was 238 mg/kg. In data set [2], this compound yielded an inhibition in vivo at 100 mg/kg of 38%.

As to `Oc1ccc2[nH]nc(NCCCN3CCOCC3)c2c1` [(88), 3-(3-Morpholinopropylamino)-5-hydroxyindazole], in data set [1], the LD50 amounted to 346 mg/kg. Besides, the inhibition in vivo at 100 mg/kg in data set [2] was 46%.

Regarding `CCN(CC)CCCNc1nn(CCCN(CC)CC)c2cccc(Cl)c12` [(89), 1-(3-Diethylaminopropyl)-3-(3-diethylaminopropylamino)-4-chloroindazole], in data set [1], the LD50 is 214 mg/kg. The compound also registered an inhibition in vivo at 100 mg/kg in data set [2] of 30%.

For `CCN(CC)CCCNc1nn(CCCN(CC)CC)c2ccc(Cl)cc12` [(90), 1-(3-Diethylaminopropyl)-3-(3-diethylaminopropylamino)-5-chloroindazole], in data set [1], the LD50 was 223 mg/kg. In data set [2], the inhibition in vivo at 100 mg/kg amounted to 29%.

As for `CCN(CC)CCCNc1nn(CCCN(CC)CC)c2cc(Cl)ccc12` [(91), 1-(3-Diethylaminopropyl)-3-(6-diethylaminopropylamino)-6-chloroindazole], the LD50 in data set [1] is 251 mg/kg. The inhibition in vivo at 100 mg/kg in data set [2] came out at 22%.
